Results on one molecule are retold here after patent US12240853B2, “Compounds useful in HIV therapy” (GlaxoSmithKline Intellectual Property (No.2) Limited, priority 2019, dated 2025).

In data set [1] the test system is HIV pseudotyped virus, M184V. In kind it is cell-based. The settings on record: U373 cells (CD4, CXCR4 or CCR5), luciferase signal after 3 days.
Data set [2] has as its system HIV pseudotyped virus (NL4-3 provirus, luciferase reporter), WT. Kind of data set: PSV (pseudotyped virus) assay, WT. As to conditions: Human immunodeficiency virus 1, NL43, 72 h, read-out: WT IC50.
Protocol: A pseudotyped virus assay (PSV) was used to assess the potency of the HIV inhibitor.
The PSV assay was performed by using U373 cells stably transformed to express human CD4, the primary receptor for HIV entry and either human CXCR4 or human CCR5 which are the co-receptors required for HIV entry as target cells for infection. […] This dose-range was applied to U373 cells and the pre-made pseudotyped virus added. The amount of luciferase signal produced after 3 days of culture was used to reflect the level of pseudotyped virus infection. An IC50, or the concentration of inhibitor required to reduce PSV infection by 50% from the infection containing no inhibitor was calculated. […] IC50 values were determined from a 10 point dose response curve using 3-4-fold serial dilution for each compound, which spans a concentration range>1000 fold.
These values are plotted against the molar compound concentrations using the standard four parameter logistic equation: y=((Vmax*x^n)/(K^n+x^n))+Y2
The nature of data set [3]: Example 18 dog PK studies (SC and IM). Format: in vivo, beagle dogs. As to conditions: beagle dog, single SC or IM injection, 5 mg parent/kg. From the text:
Example 18 referenced herein was made in accordance with Synthesis B. Six male beagle dogs (+1 spare) were selected from the Testing Facility's colony of non-naïve animals. The animals were assigned to the study based on acceptable health as determined by a Testing Facility veterinarian. Six animals were selected and placed into two groups of three animals each. Fasting of the animals before or after dosing was not required.
On Day 1 each animal in Group 1 received a single intrascapular subcutaneous injection of prepared test article at a target dose level of 5 mg parent/kg in 2% P404/2% PEG3350/PBS (dose concentration 97.36 mg/mL prodrug) and at a dose volume of 0.1 mL/kg. Each animal in Group 2 received a single intramuscular injection of prepared test article in a hind quarter (quadriceps) at a target dose level of 5 mg parent/kg in 2% P404/2% PEG3350/PBS (dose concentration 97.36 mg/mL prodrug) and at a dose volume of 0.1 mL/kg. The animals were manually restrained for dosing and were not sedated. The dose sites were clipped of hair and wiped with alcohol before dosing. […]
The PK plasma samples were analyzed approximately every two weeks by the Testing Facility to determine the concentration of Example 18 (prodrug) and parent using an LC-MS/MS Research Grade Assay (RGA-1) with sensitivity to 0.1 ng/mL. […]

Broadly, the IC50 is the concentration needed to halve the response being measured.

Turning to `C#C[C@]1(COC(=O)CCCCCCCCC)O[C@@H](n2cnc3c(N)nc(F)nc32)C[C@@H]1OC(=O)CCCCCCCCC` [Example 18, (2R,3S,5R)-5-(6-amino-2-fluoro-9H-purin-9-yl)-2-((decanoyloxy)methyl)-2-ethynyltetrahydrofuran-3-yl Decanoate], the IC50 in data set [1] was found to be 0.073 µM; in data set [2] it was 0.01 µM. In data set [3], the “Clinical observations and dose site reactions” value is “All animals appeared normal at the time of each observation and no dose site reactions were observed”.
